The test system of assay [1] is HCS imaging, dynein-mediated cargo transport inhibition. Put plainly: blockers of dynein-driven microtubule transport – imaging, high-content imaging, dose response (AID 463136).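 Note: mouse mammary adenocarcinoma 3617.4 cells expressing GFP-tagged rat glucocorticoid receptor.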
Assay in assay [2]: as above
The settings on record: HCS imaging, dynein-mediated cargo transport inhibition; inhibition at max concentration; at 50 µM; stronger effect = higher value.

The source of these data is PubChem BioAssay AID463136 (University of Pittsburgh Molecular Library Screening Center, 2010).

Records with an inconclusive call do not appear. Active and inactive are the calls of the source. The rule behind the calls is not given here.

Broadly, the IC50 is the concentration that inhibits the measured activity by half. Usually inhibition stands for the drop in the measured response relative to a control, in per cent. `Cn1c(=O)c(Nc2ccc(Cl)cc2)c2c3c(cccc31)C(=O)c1ccccc1-2`: the IC50 in assay [1] is 31 µM. Moreover, the inhibition in assay [2] was 97.8%.
The corresponding values for `COc1ccc(-n2nc(C#N)c(Cl)cc2=O)cc1` are 8.09 µM and 65.4%.
The corresponding values for `Cc1ccccc1N1C(=O)CC(Sc2nnc(-c3ccccc3)o2)C1=O` (stereo not drawn) are > 50 µM (inactive) and 16.4%.
The corresponding values for `O=c1[nH]sc2ccccc12` are 10.9 µM and 91%.
Regarding `COC1=C(C)C(O)=C(C(=O)/C=C/c2ccccc2)C(=O)C1(C)C`, in assay [1], the IC50 was 12.2 µM. Besides, in assay [2], the inhibition is 88.2%.
The corresponding values for `Cc1ccc(C(=O)Oc2oc(-c3ccco3)nc2C=Nc2ccc(Cl)cc2)cc1` are 46.3 µM and 65.2%.
For `CCOC(=O)C(=Cc1c[nH]c2ccc(S(=O)(=O)N(C)C)cc12)C(=O)OCC`, in that order: 29.5 µM and 92.8%.
For `COc1cc(/C=C/C(=O)c2ccc(F)cc2)cc(OC)c1OC`, in that order: 36.7 µM and 69.5%.
On to `Cn1c(=O)c([N+](=O)[O-])c(Oc2ccccc2)c2ccccc21`, for which the IC50 in assay [1] is > 50 µM (inactive). The inhibition in assay [2] came out at 15.3%.
Turning to `O=C(/C=C/Sc1ccccc1)c1ccccc1`, in assay [1], the IC50 was 30.3 µM. For the same molecule, in assay [2], the inhibition worked out at 76.9%.
For `CC(=O)Nc1sc(/C(C#N)=C\c2cccc(Cl)c2)nc1-c1ccc(C)cc1`, in that order: 8.22 µM and 109%.
For `Clc1ccc(-c2nnc(Sc3nc4ccccc4o3)c3ccccc23)cc1`, in that order: 39.3 µM and 83%.
For `O=C(CCl)Nc1cc(SCC(O)CO)cc([N+](=O)[O-])c1` (stereo not drawn), in that order: 10.5 µM and 88%.
Take `CCOC(=O)C(C(=O)OCC)C(C(=O)OCC)N1CCOCC1` (stereo not drawn): in assay [1], the IC50 is 14 µM. Also, the inhibition in assay [2] stood at 89.2%.
Regarding `O=C(NC1CCCCC1)C(c1cccnc1)N(C(=O)CCl)c1cccc(Cl)c1` (stereo not drawn), in assay [1], the IC50 is 7.48 µM. Moreover, in assay [2], the inhibition came out at 52.2%.
The corresponding values for `CC[n+]1c(/C=C2\Sc3ccccc3N2C)ccc2cccc(C)c21` are 0.765 µM and 28.3%.
With `O=C1NC(=O)N(c2ccccc2)C(=O)/C1=C\c1ccc([N+](=O)[O-])s1`, the IC50 in assay [1] was 14.4 µM. Besides, the inhibition in assay [2] was determined as 85.5%.
For `N#Cc1c(C(F)(F)F)cc(-c2ccccc2)nc1SCc1nc(N)nc(N2CCOCC2)n1`, in that order: > 50 µM (inactive) and 8.72%.
Consider `CCN1C/C(=C/c2ccc(N3CCOCC3)cc2)C(=O)/C(=C/c2ccc(N3CCOCC3)cc2)C1`, for which, in assay [1], the half-inhibitory concentration (IC50) is 25 µM. Besides, the inhibition in assay [2] was found to be 108%.
For `N#Cc1c(Cl)c(Cl)c2nnc(-c3ccc(Br)cc3)n2c1Cl`, in that order: > 50 µM (inactive) and 40.1%.
The corresponding values for `C=CS(=O)c1sc(Cl)c(N2CCOCC2)c1[N+](=O)[O-]` (stereo not drawn) are 45.6 µM and 57.1%.
Turning to `Cc1ccc2nc(Cl)c3nnnn3c2c1`, in assay [1], the IC50 was 9.43 µM. Also, the inhibition in assay [2] worked out at 64%.
For `O=C1NC(=O)N(c2ccccc2)C(=O)/C1=C/c1ccc([N+](=O)[O-])s1`, in that order: 13.4 µM and 86.7%.
For `CC(=O)OCCNc1cc(SCc2ccco2)c2nonc2c1[N+](=O)[O-]`, in that order: 42.1 µM and 59.9%.
For `Cc1cc(C(=O)CCl)c(C)n1-c1ccon1`, in that order: 11.8 µM and 61.3%.
For the molecule `CCCCCCN(C(=O)CCl)c1ccccc1`, in assay [1], the IC50 is 17.2 µM. In assay [2], the inhibition amounted to 80.3%.
The corresponding values for `Cc1ccc(NC(=O)c2cc(N3C(=O)C=CC3=O)ccc2N2CCOCC2)cc1` are > 50 µM (inactive) and -6.6%.
In the case of `Nc1cccc2c1C(=O)N(C(=O)/C=C/c1ccc(F)cc1)C2=O`, the IC50 in assay [1] is > 50 µM (inactive). Also, in assay [2], the inhibition amounted to 37.6%.
For `C=CCn1c(Sc2ncc([N+](=O)[O-])s2)n[nH]c1=O`, in that order: 20 µM and 62.3%.
For `COc1cc(C2Oc3ccccc3C=C2[N+](=O)[O-])cc(OC)c1OC` (stereo not drawn), in that order: 25.5 µM and 63.7%.
The corresponding values for `COc1cc(N2C(=O)C=CC2=O)c(OC)cc1Cl` are > 50 µM (inactive) and 12.9%.
`CC(C)(C)C1C/C(=C/c2ccco2)C(=O)/C(=C/c2ccco2)C1` (stereo not drawn): the IC50 in assay [1] is 24.9 µM. Besides, the inhibition in assay [2] amounted to 101%.
For `Cc1ccc(C)c2nc3sc(C(=O)N4CCCc5ccccc54)c(N)c3cc12`, in that order: > 50 µM (inactive) and 34.8%.
The corresponding values for `CCOC(=O)C(=Cc1ccc(F)cc1)C(=O)OCC` are 27.8 µM and 73.4%.
